Assay results: PubChem BioAssay AID248 (DTP/NCI, 2004)
Inconclusive results and toxic doses are left out.

Tested on: L1210 leukemia ip in BDF1 mice, survival T/C
Assay: NCI In Vivo Anticancer Drug Screen. Data for tumor model L1210 Leukemia (intraperitoneal) in B6D2F1 (BDF1) mice
Settings: endpoint: mean survival time, higher = longer survival
In short: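 In this screen, tumor-bearing mice given compound are compared to those given vehicle, and their survival values are reported as a treated-to-control quotient.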

[1] = dose: 100.0 mg/kg/injection, schedule: Q04DX002 (ip), vehicle: saline
[2] = dose: 200.0 mg/kg/injection, schedule: Q04DX002 (ip), vehicle: saline
[3] = dose: 400.0 mg/kg/injection, schedule: Q04DX002 (ip), vehicle: saline
[4] = dose: 100.0 mg/kg/injection, schedule: Q01DX001 (ip), vehicle: carboxymethylcellulose (CMC)
[5] = dose: 200.0 mg/kg/injection, schedule: Q01DX001 (ip), vehicle: carboxymethylcellulose (CMC)
[6] = dose: 400.0 mg/kg/injection, schedule: Q01DX001 (ip), vehicle: carboxymethylcellulose (CMC)
[7] = dose: 100.0 mg/kg/injection, schedule: Q01DX001 (ip), vehicle: saline
[8] = dose: 200.0 mg/kg/injection, schedule: Q01DX001 (ip), vehicle: saline
[9] = dose: 400.0 mg/kg/injection, schedule: Q01DX001 (ip), vehicle: saline
[10] = dose: 100.0 mg/kg/injection, schedule: Q04DX003 (ip), vehicle: saline with Tween-80
[11] = dose: 200.0 mg/kg/injection, schedule: Q04DX003 (ip), vehicle: saline with Tween-80
[12] = dose: 400.0 mg/kg/injection, schedule: Q04DX003 (ip), vehicle: saline with Tween-80
[13] = dose: 100.0 mg/kg/injection, schedule: Q01DX001 (ip), vehicle: saline with Tween-80

Question: For `O=c1c2ccccc2[nH]c2cc(Cl)ccc12`, which T/C (dose: 50.0 mg/kg/injection, schedule: Q01DX Z (ip), vehicle: carboxymethylcellulose (CMC)) is on record?
Answer: 109 % of control

Question: What about the T/C (dose: 100.0 mg/kg/injection, schedule: Q01DX Z (ip), vehicle: carboxymethylcellulose (CMC)) of the same compound?
Answer: 103 % of control

Question: What about the T/C (dose: 200.0 mg/kg/injection, schedule: Q01DX Z (ip), vehicle: carboxymethylcellulose (CMC)) of the same compound?
Answer: 97 % of control

Question: And the T/C (dose: 400.0 mg/kg/injection, schedule: Q01DX Z (ip), vehicle: carboxymethylcellulose (CMC))?
Answer: 115 % of control

Question: For `c1ccc(C(CCN2CCCC2)c2ccccn2)cc1` (configuration not stated), which T/C (dose: 44.0 mg/kg/injection, schedule: Q01DX Z (ip), vehicle: saline) is on record?
Answer: 90 % of control

Question: And the T/C (dose: 66.0 mg/kg/injection, schedule: Q01DX Z (ip), vehicle: saline)?
Answer: 89 % of control

Question: How did the T/C (dose: 25.0 mg/kg/injection, schedule: Q04DX003 (ip), vehicle: saline) turn out when `CC(C)(C)C(=O)/C=C(\C=S(C)(C)=O)c1ccccc1` was run?
Answer: 105 % of control

Question: What about the T/C (dose: 50.0 mg/kg/injection, schedule: Q04DX003 (ip), vehicle: saline) of the same compound?
Answer: 97 % of control

Question: And the T/C (dose: 100.0 mg/kg/injection, schedule: Q04DX003 (ip), vehicle: saline)?
Answer: 100 % of control

Question: What does the source list for `Nc1nnc(N)c2ccccc12`?
Answer: T/C [1]: 100 % of control; T/C [2]: 96 % of control; T/C [3]: 102 % of control

Question: For `O=C(CCCCOc1ccc([N+](=O)[O-])cc1Cl)Nc1ccc(S(=O)(=O)F)cc1`, which T/C (dose: 100.0 mg/kg/injection, schedule: Q04DX003 (ip), vehicle: Klucel (hydroxypropylcellulose) (HPC)) is on record?
Answer: 97 % of control

Question: What about the T/C (dose: 200.0 mg/kg/injection, schedule: Q04DX003 (ip), vehicle: Klucel (hydroxypropylcellulose) (HPC)) of the same compound?
Answer: 90 % of control

Question: What about the T/C (dose: 400.0 mg/kg/injection, schedule: Q04DX003 (ip), vehicle: Klucel (hydroxypropylcellulose) (HPC)) of the same compound?
Answer: 90 % of control

Question: For `COc1ccc(CN2CCCN(Cc3ccc(OC)cc3OC)C2c2ccccc2OC)c(OC)c1`, which T/C (dose: 50.0 mg/kg/injection, schedule: Q01DX001 (ip), vehicle: carboxymethylcellulose (CMC)) is on record?
Answer: 101 % of control

Question: And the T/C [4]?
Answer: 93 % of control

Question: And the T/C [5]?
Answer: 93 % of control

Question: And the T/C [6]?
Answer: 101 % of control

Question: How did the T/C (dose: 100.0 mg/kg/injection, schedule: Q04DX003 (sc), vehicle: olive oil, sesame oil, peanut oil) turn out when `C/C=C/c1ccccc1C(C)=O` was run?
Answer: 105 % of control

Question: What about the T/C (dose: 200.0 mg/kg/injection, schedule: Q04DX003 (sc), vehicle: olive oil, sesame oil, peanut oil) of the same compound?
Answer: 105 % of control

Question: And the T/C (dose: 400.0 mg/kg/injection, schedule: Q04DX003 (sc), vehicle: olive oil, sesame oil, peanut oil)?
Answer: 100 % of control

Question: How did the T/C (dose: 12.5 mg/kg/injection, schedule: Q04DX002 (ip), vehicle: saline) turn out when `CC(=O)OC1CC2(CO2)C2CC3OC3(C)C2C2OC(=O)C(C)C12` (configuration not stated) was run?
Answer: 95 % of control

Question: And the T/C (dose: 25.0 mg/kg/injection, schedule: Q04DX002 (ip), vehicle: saline)?
Answer: 92 % of control

Question: What about the T/C (dose: 50.0 mg/kg/injection, schedule: Q04DX002 (ip), vehicle: saline) of the same compound?
Answer: 110 % of control

Question: What about the T/C (dose: 75.0 mg/kg/injection, schedule: Q04DX002 (ip), vehicle: saline) of the same compound?
Answer: 97 % of control

Question: What about the T/C [1] of the same compound?
Answer: 95 % of control

Question: What about the T/C (dose: 115.0 mg/kg/injection, schedule: Q04DX002 (ip), vehicle: saline) of the same compound?
Answer: 104 % of control

Question: And the T/C (dose: 170.0 mg/kg/injection, schedule: Q04DX002 (ip), vehicle: saline)?
Answer: 104 % of control

Question: And the T/C [2]?
Answer: 110 % of control

Question: And the T/C [3]?
Answer: 95 % of control

Question: Which results are given for `O=C1Nc2cccc3cc(NCC(O)CCCl)cc1c23` (configuration not stated)?
Answer: T/C [7]: 90 % of control; T/C [8]: 89 % of control; T/C [9]: 100 % of control

Question: For `CC(=O)Nc1cc(NC(C)=O)cc(N(CCO)CCO)c1`, which T/C (dose: 25.0 mg/kg/injection, schedule: Q01DX009 (ip), vehicle: water) is on record?
Answer: 97 % of control

Question: And the T/C (dose: 50.0 mg/kg/injection, schedule: Q01DX009 (ip), vehicle: water)?
Answer: 100 % of control

Question: And the T/C (dose: 100.0 mg/kg/injection, schedule: Q01DX009 (ip), vehicle: water)?
Answer: 106 % of control

Question: And the T/C (dose: 400.0 mg/kg/injection, schedule: Q01DX009 (ip), vehicle: water)?
Answer: 106 % of control

Question: Which T/C (dose: 25.6 mg/kg/injection, schedule: Q04DX002 (ip), vehicle: saline with Tween-80) does the source give for `CCOC(=O)C(C(C)=O)C(c1cccc(O)c1)C(C(C)=O)C(=O)O` (configuration not stated) here?
Answer: 95 % of control

Question: And the T/C (dose: 37.5 mg/kg/injection, schedule: Q01DX009 (ip), vehicle: saline with Tween-80)?
Answer: 100 % of control

Question: What about the T/C (dose: 64.0 mg/kg/injection, schedule: Q04DX002 (ip), vehicle: saline with Tween-80) of the same compound?
Answer: 91 % of control

Question: What about the T/C (dose: 75.0 mg/kg/injection, schedule: Q01DX009 (ip), vehicle: saline with Tween-80) of the same compound?
Answer: 91 % of control

Question: What about the T/C [10] of the same compound?
Answer: 90 % of control

Question: What about the T/C (dose: 150.0 mg/kg/injection, schedule: Q01DX009 (ip), vehicle: saline with Tween-80) of the same compound?
Answer: 94 % of control

Question: What about the T/C (dose: 160.0 mg/kg/injection, schedule: Q04DX002 (ip), vehicle: saline with Tween-80) of the same compound?
Answer: 87 % of control

Question: What about the T/C [11] of the same compound?
Answer: 90 % of control

Question: For `Cc1cnc(Cl)c(Br)c1`, which T/C [10] is on record?
Answer: 100 % of control

Question: What about the T/C [11] of the same compound?
Answer: 102 % of control

Question: And the T/C [12]?
Answer: 98 % of control

Question: Which T/C (dose: 15.0 mg/kg/injection, schedule: Q01DX001 (ip), vehicle: carboxymethylcellulose (CMC)) does the source give for `[O-][n+]1c(Cl)cccc1Cl` here?
Answer: 103 % of control

Question: What about the T/C (dose: 30.0 mg/kg/injection, schedule: Q01DX001 (ip), vehicle: carboxymethylcellulose (CMC)) of the same compound?
Answer: 112 % of control

Question: And the T/C (dose: 60.0 mg/kg/injection, schedule: Q01DX001 (ip), vehicle: carboxymethylcellulose (CMC))?
Answer: 105 % of control

Question: For `Cc1ccc2c(c1)SP(=S)(c1ccccc1)N2` (configuration not stated), which T/C (dose: 15.0 mg/kg/injection, schedule: Q01DX Z (ip), vehicle: saline) is on record?
Answer: 100 % of control

Question: And the T/C (dose: 25.0 mg/kg/injection, schedule: Q01DX Z (ip), vehicle: saline)?
Answer: 89 % of control

Question: Which T/C (dose: 50.0 mg/kg/injection, schedule: Q01DX001 (ip), vehicle: Klucel (hydroxypropylcellulose) (HPC)) does the source give for `O=[N+]([O-])c1cccc(OCCCCOc2ccc(S(=O)(=O)F)cc2)c1` here?
Answer: 92 % of control

Question: And the T/C (dose: 100.0 mg/kg/injection, schedule: Q01DX001 (ip), vehicle: Klucel (hydroxypropylcellulose) (HPC))?
Answer: 94 % of control

Question: What about the T/C (dose: 200.0 mg/kg/injection, schedule: Q01DX001 (ip), vehicle: Klucel (hydroxypropylcellulose) (HPC)) of the same compound?
Answer: 90 % of control

Question: Which T/C [4] does the source give for `CCCCCC[Si](C)(C)C` here?
Answer: 89 % of control

Question: What about the T/C [5] of the same compound?
Answer: 91 % of control

Question: And the T/C [6]?
Answer: 89 % of control

Question: For `CN1CCN(c2ccccc2)CC1`, which T/C (dose: 25.0 mg/kg/injection, schedule: Q01DX001 (ip), vehicle: saline with Tween-80) is on record?
Answer: 168 % of control

Question: And the T/C (dose: 50.0 mg/kg/injection, schedule: Q01DX001 (ip), vehicle: saline with Tween-80)?
Answer: 98 % of control

Question: What about the T/C [13] of the same compound?
Answer: 196 % of control

Question: Which T/C [13] does the source give for `Cc1cc2c(cc1C)C(=O)CCC2` here?
Answer: 97 % of control

Question: What about the T/C (dose: 100.0 mg/kg/injection, schedule: Q01DX009 (ip), vehicle: saline with Tween-80) of the same compound?
Answer: 109 % of control

Question: What about the T/C (dose: 100.0 mg/kg/injection, schedule: Q04DX002 (ip), vehicle: saline with Tween-80) of the same compound?
Answer: 88 % of control

Question: And the T/C [10]?
Answer: 97 % of control

Question: What about the T/C (dose: 200.0 mg/kg/injection, schedule: Q01DX001 (ip), vehicle: saline with Tween-80) of the same compound?
Answer: 97 % of control

Question: And the T/C (dose: 200.0 mg/kg/injection, schedule: Q01DX009 (ip), vehicle: saline with Tween-80)?
Answer: 109 % of control

Question: And the T/C (dose: 200.0 mg/kg/injection, schedule: Q04DX002 (ip), vehicle: saline with Tween-80)?
Answer: 90 % of control

Question: What about the T/C [11] of the same compound?
Answer: 98 % of control

Question: And the T/C (dose: 400.0 mg/kg/injection, schedule: Q01DX001 (ip), vehicle: saline with Tween-80)?
Answer: 91 % of control

Question: And the T/C (dose: 400.0 mg/kg/injection, schedule: Q01DX009 (ip), vehicle: saline with Tween-80)?
Answer: 115 % of control

Question: And the T/C (dose: 400.0 mg/kg/injection, schedule: Q04DX002 (ip), vehicle: saline with Tween-80)?
Answer: 90 % of control

Question: And the T/C [12]?
Answer: 95 % of control

Question: What does the source list for `Oc1cc(O)cc(O)c1`?
Answer: T/C (dose: 100.0 mg/kg/injection, schedule: Q01DX009 (ip), vehicle: saline): 96 % of control; T/C [1]: 115 % of control; T/C (dose: 200.0 mg/kg/injection, schedule: Q01DX009 (ip), vehicle: saline): 100 % of control; T/C [2]: 104 % of control; T/C (dose: 400.0 mg/kg/injection, schedule: Q01DX009 (ip), vehicle: saline): 100 % of control; T/C [3]: 100 % of control

Question: Which T/C (dose: 2.5 mg/kg/injection, schedule: Q01DX009 (ip), vehicle: saline with Tween-80) does the source give for `CN(C)C(=S)SCC(=O)c1ccccc1` here?
Answer: 93 % of control

Question: And the T/C (dose: 5.0 mg/kg/injection, schedule: Q01DX009 (ip), vehicle: saline with Tween-80)?
Answer: 89 % of control

Question: And the T/C (dose: 10.0 mg/kg/injection, schedule: Q01DX009 (ip), vehicle: saline with Tween-80)?
Answer: 105 % of control

Question: How did the T/C [7] turn out when `O=C(CNC(=O)c1ccccc1)Nc1ccccc1` was run?
Answer: 105 % of control

Question: And the T/C [8]?
Answer: 97 % of control

Question: What about the T/C [9] of the same compound?
Answer: 97 % of control
